{"source": "patent US20210346354A1", "about": "“MACROPINOCYTOSIS IN CANCER” (Memorial Sloan-Kettering Cancer Center, priority 2015, published 2021)", "key": {"K-Ras^G12D MEFs [1]": {"system": "K-Ras^G12D MEFs", "experiment": "Proliferation assay (cell numbers) of K-Ras^G12D MEFs in starvation medium", "assay_type": "cell-based, mouse", "description": "(§1) Cell culture experiments were performed at 37° C. and 5% CO2 in DMEM/F12 with 10% dialyzed FBS (molecular weight cut-off 10,000; Gemini Biosystems), 100 U/mL penicillin, 100 μg/mL streptomycin, 5 mM glucose and 2 mM glutamine. For proliferation assays, MEFs were plated in complete medium, 5 h later briefly rinsed and then cultured in starvation medium as indicated. For EAA titration experiments, EAAs were supplemented at indicated percentages of 1×MEM amino acid solution (M5550, Sigma). Cancer cell lines were cultured in complete medium for 1 day prior to starvation. Numbers of adherent cells, which are >95% viable as assessed by Trypan Blue exclusion were determined using a Multisizer 4 Coulter Counter (Beckman). For mTOR activation and localization experiments, cells were rinsed and then incubated in EAA starvation medium (DMEM/F12 lacking all amino acids except glutamine) for 1 h, and subsequently placed in medium supplemented with EAAs (1×MEM amino acid solution), albumin (3%, if not stated otherwise) or fresh EAA-free starvation medium for indicated periods of time."}, "mTORC1": {"system": "mTORC1", "experiment": "mTORC1 re-activation after 1 h EAA starvation, Western blotting against phosphorylated S6K1", "assay_type": "cell-based, mouse", "conditions": "for albumin-dependent mTORC1 activation: 3% albumin", "description": "Cells were rinsed with ice-cold PBS and detached from culture plates by incubation with ice-cold trypsin (0.05%). Trypsin was inactivated with ice-cold serum, cells pelleted and rinsed with ice cold PBS. Cells were lysed in ice-cold lysis buffer [50 mM HEPES, pH 7.4, 40 mM […], 2 mM EDTA, 1 mM Na Orthovandanate, 50 mM NaF, 10 mM Na Pyrophosphate, 10 mM Na Glycerophosphate, 1% Triton X-100, 1×Halt protease and phosphatase inhibitor cocktails (Thermo Scientific)] for 15 min, and soluble lysate fractions isolated by centrifugation at 16,000 g for 10 min. Protein concentrations were determined with the Pierce BCA Protein Assay (Thermo Scientific) and equal amounts of proteins analyzed by SDS gel electrophoresis and Western blotting following standard protocols.\nas §1\nCells can sense EAAs through the mTORC1 pathway, which integrates amino acid levels with inputs from growth factor signaling to promote cell growth (Ma and Blenis, 2009; Shimobayashi and Hall, 2014). When cells are placed in EAA-free medium, the ability of mTORC1 to phosphorylate downstream targets is repressed. To test if catabolism of extracellularly provided proteins could restore mTORC1 activity in the absence of EAAs, mTORC1 was inactivated by subjecting MEFs to 1 h EAA starvation. Fresh medium containing EAAs or different concentrations of albumin was then added and mTORC1 re-activation assessed by Western blotting against phosphorylated S6K1."}, "K-Ras^G12D MEFs [2]": {"system": "K-Ras^G12D MEFs", "experiment": "Lysosomal degradation of DQ-BSA (fluorescence dequenching) in K-Ras^G12D MEFs", "assay_type": "cell-based, mouse", "conditions": "for torin 1-induced increase in DQ-BSA fluorescence when transcription is blocked: 5 μg/ml actinomycin D or 1 μM triptolide, 30 min pre-treatment, 6 h DQ-BSA", "description": "For live imaging, medium was supplemented with 0.3 mg/ml DQ Green BSA. 1 h prior to imaging, 50 nM LysoTracker Red and 0.2 μg/ml Hoechst were added. Cells were imaged either immediately after addition of DQ-BSA and torin 1, or after 5-6 h incubation using a Zeiss LSM 5 LIVE.\nTo characterize how cells derive leucine from extracellular proteins, cellular albumin uptake was investigated using constitutively fluorescent albumin and intracellular albumin proteolysis using a self-quenched albumin that emits fluorescence upon degradation (DQ-BSA) (Reis et al., 1998). […] It was then determined whether lysosomal albumin degradation was required to support growth during leucine starvation. […] Ras GTPases can promote cellular uptake of macromolecules through macropinocytosis (Bar-Sagi and Feramisco, 1986). […] To investigate whether this endocytic pathway contributed to albumin-dependent growth, cells were treated with the Na^+/H^+ exchange inhibitor EIPA, which blocks macropinocytosis but not other endocytic pathways (West et al., 1989).\nTo distinguish these possibilities, it was first tested whether mTORC1 inhibition increased internalization of extracellular macromolecules. […] It was next examined whether mTORC1 inhibition affected lysosomal degradation of internalized proteins."}, "mTOR": {"system": "mTOR", "experiment": "Lysosomal recruitment of mTOR, immunofluorescence against mTOR and LAMP2", "assay_type": "cell-based, mouse", "conditions": "K-Ras^G12D MEFs", "description": "For immunostainings, cells were rinsed with ice-cold PBS, fixed with 4% formaldehyde in PBS for 15 min and permeabilized with 0.05% Triton X-100 in PBS. After rinsing with PBS, cells were blocked with PBG (0.5% BSA, 0.2% cold water fish gelatin in PBS) for 30 min, incubated with primary antibodies in PBG for 1.5 h, washed two times with PBG+4% normal goat serum and then incubated with secondary antibodies in PBG+4% NGS for 45 min. After three washes with PBS, cells were mounted on microscope slides with Prolong Antifade+DAPI and imaged using a Leica TCS SP5-II.\nas §1, with “For mTOR activation and localization experiments, cells were rinsed and then incubated in EAA starvation medium (DMEM/F12 lacking all amino acids except glutamine) for 1 h, and subsequently placed in medium supplemented with EAAs (1×MEM amino acid solution), albumin (3%, if not stated otherwise) or fresh EAA-free starvation medium for indicated periods of time.” left out"}, "[3]": {"conditions": "background statement; cited from earlier work"}, "wild type MEFs": {"system": "wild type MEFs", "experiment": "Proliferation assay (cell numbers) of wild type MEFs in starvation medium", "assay_type": "cell-based, mouse", "description": "as §1"}, "[4]": {"system": "wild type and heterozygous K-Ras^G12D MEFs", "experiment": "Cell numbers of wild type and K-Ras^G12D MEFs in medium lacking nutrients ±3% albumin", "assay_type": "cell-based, mouse", "conditions": "for cell viability: 3% albumin supplementation", "description": "The dashed line indicates starting cell numbers. # below detection limit. *p<0.05, ** p<0.01, ***p<0.001. […] Data are represented as mean±STDEV (n=3).\nas §1\nTo investigate whether activation of K-Ras signaling altered a cell's ability to metabolize extracellular proteins, we compared immortalized mouse embryonic fibroblasts (MEFs) harboring wild type K-Ras or a constitutively active K-Ras^G12D allele. Albumin is the major protein in plasma and interstitial fluids, its levels ranging from 2-5%. To mimic the protein-rich composition of extracellular fluids, culture medium was therefore supplemented with 10% dialyzed fetal bovine serum ±3% albumin."}, "[5]": {"conditions": "K-Ras^G12D MEFs, inhibitor added at onset of starvation"}, "[6]": {"conditions": "EAAs at 5% of the levels in complete medium, 3% albumin"}, "[7]": {"conditions": "3% albumin after 1 h EAA starvation"}}, "note": "Numbered stars: 1 amine (or outer) side, 2 acyl side, 3 side chain; on linkers, the order of the positions; unused ones are H or OH. Bridge positions count the residues as written; N and C are the ends. Square brackets hold non-standard residues; d marks the D form. Peptide text beside a SMILES is read from it. I, II: the chains in the order shown. Actinocin(9to1) = Cc1c2oc3c(C)ccc(C(=O)[*:1])c3nc-2c(C(=O)[*:2])c(N)c1=O; NMeV = CN[C@H](C(=O)O)C(C)C; Sar = CNCC(=O)O"}
{"compound": "CCN(c1nc(N)c(C(=O)NC(=N)N)nc1Cl)C(C)C", "note": "[EIPA]", "values": [{"measurement": "cell proliferation", "setting": "K-Ras^G12D MEFs [1]; EIPA treatment with free leucine added to culture medium", "value": "restored"}, {"measurement": "cell proliferation", "setting": "K-Ras^G12D MEFs [1]; leucine-free medium +3% albumin, 25 μM EIPA, day 3", "value": "strongly decreased"}, {"measurement": "albumin-dependent mTORC1 activation", "setting": "mTORC1; [5]", "value": "strongly reduced"}]}
{"compound": "Oc1ccc2ccccc2c1SSc1c(O)ccc2ccccc12", "note": "[IPA-3]", "values": [{"measurement": "albumin-dependent mTORC1 activation", "setting": "mTORC1; [5]", "value": "strongly reduced"}]}
{"compound": "Cc1c2oc3c(C)ccc(C(=O)N[C@@H]4C(=O)N[C@H](C(C)C)C(=O)N5CCC[C@H]5C(=O)N(C)CC(=O)N(C)[C@@H](C(C)C)C(=O)O[C@@H]4C)c3nc-2c(C(=O)N[C@@H]2C(=O)N[C@H](C(C)C)C(=O)N3CCC[C@H]3C(=O)N(C)CC(=O)N(C)[C@@H](C(C)C)C(=O)O[C@@H]2C)c(N)c1=O", "note": "[actinomycin D] (I: T[dV]P[Sar][NMeV] / II: T[dV]P[Sar][NMeV]; ester I:1-I:C, II:1-II:C; linker I:N-II:N via Actinocin(9to1))", "values": [{"measurement": "torin 1-induced increase in DQ-BSA fluorescence when transcription is blocked", "setting": "K-Ras^G12D MEFs [2]", "value": "unaffected"}]}
{"compound": "CO/C1=C\\C(C)=C\\[C@@H](C)[C@@H](O)[C@@H](C)C/C(C)=C/C=C/[C@H](OC)[C@@H]([C@@H](C)[C@@H](O)[C@H](C)[C@@]2(O)C[C@@H](O)[C@H](C)[C@@H](C(C)C)O2)OC1=O", "note": "[bafilomycin A1]", "values": [{"measurement": "albumin-dependent mTORC1 activation", "setting": "mTORC1; [5]", "value": "strongly suppressed"}, {"measurement": "mTORC1 activation by EAAs", "setting": "mTORC1; [5]", "value": "did not perturb"}, {"measurement": "movement of mTOR to lysosomal membranes in response to albumin", "setting": "mTOR; 200 nM bafilomycin A1 added at onset of EAA starvation", "value": "completely blocked"}]}
{"compound": "CCN(CC)CCCC(C)Nc1ccnc2cc(Cl)ccc12", "note": "(centres unmarked) [chloroquine]", "values": [{"measurement": "DQ-BSA degradation in torin 1-treated cells", "setting": "K-Ras^G12D MEFs [2]; 250 nM torin 1 plus 20 μM chloroquine or protease inhibitors, 6 h", "value": "abrogated DQ-BSA degradation"}]}
{"compound": "C=C1[C@@H](C)[C@H]2[C@H](Cc3ccccc3)NC(=O)[C@]23[C@H](OC(C)=O)/C=C/[C@@](C)(O)C(=O)[C@@H](C)C/C=C/[C@H]3[C@@H]1O", "note": "[cytochalasin D]", "values": [{"measurement": "albumin-dependent mTORC1 activation", "setting": "mTORC1; [5]", "value": "strongly reduced"}]}
{"compound": "C/C1=C\\[C@H](C)C[C@H](C)OC(=O)C[C@H](c2ccc(O)cc2)NC(=O)[C@@H](Cc2c(Br)[nH]c3ccccc23)N(C)C(=O)[C@H](C)NC(=O)[C@@H](C)C1", "note": "[jasplakinolide]", "values": [{"measurement": "albumin-dependent mTORC1 activation", "setting": "mTORC1; [5]", "value": "strongly reduced"}]}
{"compound": "CO[C@H]1C[C@@H]2CC[C@@H](C)[C@@](O)(O2)C(=O)C(=O)N2CCCC[C@H]2C(=O)O[C@H]([C@H](C)C[C@@H]2CC[C@@H](O)[C@H](OC)C2)CC(=O)[C@H](C)/C=C(\\C)[C@@H](O)[C@@H](OC)C(=O)[C@H](C)C[C@H](C)/C=C/C=C/C=C/1C", "note": "[rapamycin]", "values": [{"measurement": "stability", "setting": "[3]", "value": "not very stable"}]}
{"compound": "CC(C)[C@]12O[C@H]1[C@@H]1O[C@]13[C@]1(O[C@H]1C[C@H]1C4=C(CC[C@@]13C)C(=O)OC4)[C@@H]2O", "note": "[triptolide]", "values": [{"measurement": "torin 1-induced increase in DQ-BSA fluorescence when transcription is blocked", "setting": "K-Ras^G12D MEFs [2]", "value": "unaffected"}]}
{"compound": "albumin: bovine serum albumin (A1470, Sigma) added to medium as extracellular protein nutrient", "values": [{"measurement": "cell proliferation", "setting": "K-Ras^G12D MEFs [1]; [6]", "value": "significant increase in proliferation"}, {"measurement": "cell proliferation", "setting": "K-Ras^G12D MEFs [1]; leucine-free medium containing 3% albumin, several consecutive days", "value": "able to sustain proliferation"}, {"measurement": "albumin concentration at which proliferation could be sustained", "setting": "K-Ras^G12D MEFs [1]; low-EAA medium (5% EAAs)", "value": "at least 1%"}, {"measurement": "proliferation rate", "setting": "K-Ras^G12D MEFs [1]; low-EAA medium, albumin concentration raised to 3%", "value": "increased progressively"}, {"measurement": "cell numbers", "setting": "K-Ras^G12D MEFs [1]; medium lacking glutamine, 3% albumin supplementation", "value": "increase in cell numbers, albeit to a minor extent"}, {"measurement": "cell viability", "setting": "K-Ras^G12D MEFs [1]; medium lacking isoleucine, lysine, or arginine, physiological levels of albumin (3%)", "value": "rescued cell viability"}, {"measurement": "survival and proliferation", "setting": "wild type MEFs; [6]", "value": "improved survival of wild type MEFs, but did not support their proliferation"}, {"measurement": "cell viability", "setting": "wild type MEFs; low-EAA medium, increasing albumin levels (1-3%)", "value": "improved viability"}, {"measurement": "time after which mTORC1-dependent phosphorylation resumed", "setting": "mTORC1; [7]", "value": 2, "unit": "h"}, {"measurement": "time to maximal levels of mTORC1-dependent phosphorylation", "setting": "mTORC1; [7]", "value": 4, "unit": "h"}, {"measurement": "S6K1 phosphorylation", "setting": "mTORC1; wild type and K-Ras^G12D MEFs, EAA-free medium with 1-3% albumin", "value": "concentration-dependent increase in S6K1 phosphorylation"}, {"measurement": "subcellular localization of mTOR", "setting": "mTOR; 1 h EAA starvation, then 3% albumin", "value": "localized to punctate structures that were marked by the lysosomal membrane protein LAMP2"}, {"measurement": "cell proliferation", "setting": "[4]; glucose-free medium ±3% albumin", "value": "ceased to proliferate, regardless of the presence of 3% albumin"}, {"measurement": "cell survival", "setting": "[4]; medium lacking all essential amino acids (EAAs), 3% albumin", "value": "striking rescue of cell survival"}, {"measurement": "cell viability", "setting": "[4]; non-essential amino acid (NEAA) starvation", "value": "modestly improved viability"}, {"measurement": "cell viability", "setting": "[4]; starved for leucine", "value": "completely restored"}]}
